Values joined by “and” are separate entries in the source; they are usually repeats but may differ in a detail not shown here. Equal entries are not always repeated.
What was measured:
halitosis subjects [1] = experiment: Organoleptic assessment of subjects' saliva; type: in vivo, human; conditions: three recalled subjects; 3-day CHX regimen only; seventh day; scale of 0-5
Source text: Sixty-five subjects were screened for volatile sulphur compound (VSC) breath readings by halimeter (Interscan Corp., Chatsworth, Calif.). VSC readings in persons with normal breath are typically in the range of 80-150 ppb. At levels of 200-300 ppb oral malodor is noticeable by an observer standing close to the patient. At 350-400 ppb, the odour is noticeable by an observer standing several feet away from the patient. Those subjects with breath scores of greater than 200 ppb on two separate visits were recruited for the study (n=13). Each signed an Informed Consent under a protocol approved by the Otago Ethics Committee. Subject's upon their second positive visit undertook a mechanical and chemical treatment of their mouths at the laboratory. […]
Fresh saliva samples and tongue swabs were tested for N-benzoyl-DL-arginine-2-naphthylamide (BANA) hydrolysis (BANAMet ILC, Ann Arbor, Mich.), since positive scores by the BANA test have previously been associated with the presence of malodour-forming enzyme activities of certain oral bacterial species (1, 3). […] The samples were graded according to the same criteria used to assess breath air of halitosis sufferers (7), using a scale of 0-5, with 0 equating to no odour detected and 5 the most severe.

halitosis subjects [2] = experiment: Volatile sulphur compound (VSC) breath readings by halimeter in halitosis subjects; type: in vivo, human; conditions: three recalled subjects
Source text: Sixty-five subjects were screened for volatile sulphur compound (VSC) breath readings by halimeter (Interscan Corp., Chatsworth, Calif.). VSC readings in persons with normal breath are typically in the range of 80-150 ppb. At levels of 200-300 ppb oral malodor is noticeable by an observer standing close to the patient. At 350-400 ppb, the odour is noticeable by an observer standing several feet away from the patient. Those subjects with breath scores of greater than 200 ppb on two separate visits were recruited for the study (n=13). Each signed an Informed Consent under a protocol approved by the Otago Ethics Committee. Subject's upon their second positive visit undertook a mechanical and chemical treatment of their mouths at the laboratory. This consisted of teeth and tongue brushing (2 minutes with Colgate Total™ [0.3% w/v triclosan], Colgate-Palmolive, N.Y., USA), tongue scraping for 30 seconds, brushing teeth and tongue with a CHX gel (Colgate, Australia) (Perioguard 2.0% CHX mouth gel, 2 minutes) and followed by a 30 second CHX rinse (0.2% CHX, 10% ethanol alcohol). This was followed at intervals by the sucking of a lozenge (BLIS Technologies Limited, Wellington, New Zealand) (commencing 2 hours after treatment and typically 2 hours apart, 4 times daily), each containing>1×10^9 colony forming units of streptomycin-resistant S. salivarius K12. […]

Question: What does the source list for `[H]/N=C(\N/C(=N/[H])NCCCCCCNC(=N)NC(=N)Nc1ccc(Cl)cc1)Nc1ccc(Cl)cc1` [CHX, chlorhexidine]?
Answer: Post CHX treatment Saliva organoleptic (halitosis subjects [1]): 2 and 3; change in VSC, organoleptic or BANA readings after treatment with CHX only (halitosis subjects [2]): no decrease

From patent publication US8057790B2, “Treatment of malodour” (Blis Technologies Limited, priority 2003, dated 2011)
